Assay results as given in US5049389A, “Novel liposome composition for the treatment of interstitial lung diseases” (priority 1989, dated 1991).

Tests used:
[1] = system: chronic relapsing Stage II and III pulmonary sarcoidosis; details: 1200 or 2400 ug daily inhaled via Nebuhaler; cited from earlier work
[2] = Thin layer chromatographic assay of lung samples for BDP metabolism; format: in vivo, rat; details: thin layer chromatography
[3] = Partition between octanol and phosphate buffer saline; format: physicochemical; details: pH 7.4
Text: Nearly all (95%) of the BDP was associated with the octanol.

[4] = rat, in vivo
Method: The amount of drug in the lungs at time zero can be used to determine the amount of free drug in the formulation, since free drug is very rapidly absorbed from the lungs (Dose=free drug+amount in lungs at t=0). This amount also includes any liposome associated drug that was rapidly released ("burst" effect).
The absorption kinetics (sustained release) was determined by measuring percentage of ^14 C BDP remaining in the lungs following the intratracheal instillation of the above described five liposome formulations and one intravenous administration of free drug.
All studies were performed in male Sprague-Dawley rats weighing 250 to 450 g. After fasting for 16 hours, animals were anesthetized by i.m. injection of ketamine (25 mg/kg), xylazine (5 mg/kg) and acepromazine (0.5 mg/ml). During the procedure the animal's body temperature was maintained with a 37° C. heating pad. Additional anesthetic was administered as required, using half the original dose. A midline incision was made in the neck and the right jugular vein and left carotid artery were cannulated with short lengths of polyethylene tubing to which a 23 ga Luer stub adapter (Clay Adams #7565) and plastic 3-way stopcock (Argyle #173518) were attached. Blood samples (0.5-4 ml) were removed from the carotid arterial cannula after first flushing with fresh blood to clear the line. Blood volume removed was replaced with an equal volume of 5% dextrose solution containing 50 U/ml of heparin via the jugular cannula. For intravenous (i.v.) injection studies, drug was injected into the venous cannula with a 500 ul glass syringe via a 22 ga needle and injection cap and flushed with 0.5 to 1.0 ml dextrose solution.
For intratracheal (i.t.) instillation of BDP formulations, (Table V) the trachea was cannulated with a 4 cm long section of Teflon tubing (1.2 mm I.D.), inserted at the level of the fifth tracheal ring below the thyroid cartilage and tied in place with a suture. Excess fluid in the trachea was aspirated through tubing attached to a syringe. […]

| BDP associated with the octanol [3] [%] | drug absorbed before the first time point [4] | apparent half-life in lungs (elimination of released radiolabel, not absorption) ([4]; 0.008 mg/kg) [h] | ^14 C BDP removed from the lungs (absorbed) ([4]; 0.5 h) [%] | Structure (SMILES) | improvement in pulmonary sarcoidosis [1] | metabolism of BDP prior to leaving the lungs [2] |
| --- | --- | --- | --- | --- | --- | --- |
|  |  |  |  | CCCC1O[C@@H]2C[C@H]3[C@@H]4CCC5=CC(=O)C=C[C@]5(C)[C@H]4[C@@H](O)C[C@]3(C)[C@]2(C(=O)CO)O1 (stereo partly drawn) [budesonide] | showed improvement in chronic relapsing Stage II and III pulmonary sarcoidosis |  |
| 95 | over 98% | 3.0 | 99.7 | CCC(=O)OCC(=O)[C@@]1(OC(=O)CC)[C@@H](C)C[C@H]2[C@@H]3CCC4=CC(=O)C=C[C@]4(C)[C@@]3(Cl)[C@@H](O)C[C@@]21C [Beclomethasone dipropionate, beclomethasone dipropionate] |  | no detectable metabolism of BDP prior to leaving the lungs |
